Reference: ChEMBL document CHEMBL1201861, “Genomics of Drug Sensitity in Cancer screening data, Wellcome Trust Sanger Institute”

How the values were obtained:
Test in all cases: cells
MZ1-PC = type: functional, cell-based, Homo sapiens; conditions: Homo sapiens, MZ1-PC;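 also: cell viability assay measuring growth inhibition of human MZ1-PC cells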
Description: SANGER: Inhibition of human MZ1-PC cell growth in a cell viability assay.

DU-4475 = type: functional, cell-based, Homo sapiens; conditions: Homo sapiens, DU-4475
Description: SANGER: Inhibition of human DU-4475 cell growth in a cell viability assay.

SK-LMS-1 = type: functional, cell-based, Homo sapiens; conditions: Homo sapiens, SK-LMS-1;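 also: growth inhibition of human SK-LMS-1 cells, read out with a cell viability assay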
Description: SANGER: Inhibition of human SK-LMS-1 cell growth in a cell viability assay.

EKVX = type: functional, cell-based, Homo sapiens; conditions: Homo sapiens, EKVX;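 also: growth inhibition of human EKVX cells, read out with a cell viability assay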
Description: SANGER: Inhibition of human EKVX cell growth in a cell viability assay.

TE-8 = type: functional, cell-based, Homo sapiens; conditions: Homo sapiens, TE-8;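 also: growth inhibition of TE-8 cells, measured with a cell viability readout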
Description: SANGER: Inhibition of human TE-8 cell growth in a cell viability assay.

GCIY = type: functional, cell-based, Homo sapiens; conditions: Homo sapiens, GCIY;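 also: growth inhibition of the human GCIY cell line, read out by a cell viability assay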
Description: SANGER: Inhibition of human GCIY cell growth in a cell viability assay.

ES6 = type: functional, cell-based; conditions: Homo sapiens;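 also: growth inhibition of human ES6 cells, read out with a cell viability assay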
Description: SANGER: Inhibition of human ES6 cell growth in a cell viability assay.

LS-513 = type: functional, cell-based, Homo sapiens; conditions: Homo sapiens, LS-513
Description: SANGER: Inhibition of human LS-513 cell growth in a cell viability assay.

CW-2 = type: functional, cell-based, Homo sapiens; conditions: Homo sapiens, CW-2;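 also: growth inhibition of CW-2 cells, read out by a cell viability assay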
Description: SANGER: Inhibition of human CW-2 cell growth in a cell viability assay.

KARPAS-299 = type: functional, cell-based, Homo sapiens; conditions: Homo sapiens, KARPAS-299
Description: SANGER: Inhibition of human KARPAS-299 cell growth in a cell viability assay.

SCH = type: functional, cell-based, Homo sapiens; conditions: Homo sapiens, SCH;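 also: growth inhibition of human SCH cells, read out in a cell viability assay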
Description: SANGER: Inhibition of human SCH cell growth in a cell viability assay.

COLO-800 = type: functional, cell-based, Homo sapiens; conditions: Homo sapiens, COLO-800;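 also: growth inhibition of COLO-800 cells, read out with a cell viability assay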
Description: SANGER: Inhibition of human COLO-800 cell growth in a cell viability assay.

MOLT-4 = type: functional, cell-based, Homo sapiens; conditions: Homo sapiens, MOLT-4;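 also: growth inhibition of MOLT-4 cells, determined with a cell viability readout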
Description: SANGER: Inhibition of human MOLT-4 cell growth in a cell viability assay.

ES4 = type: functional, cell-based, Homo sapiens; conditions: Homo sapiens, ES4;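 also: growth inhibition of human ES4 cells, read out by a cell viability assay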
Description: SANGER: Inhibition of human ES4 cell growth in a cell viability assay.

HCC2157 = type: functional, cell-based, Homo sapiens; conditions: Homo sapiens, HCC2157;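 also: growth inhibition of the cancer cell line, read out as cell viability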
Description: SANGER: Inhibition of human HCC2157 cell growth in a cell viability assay.

NCI-H1770 = type: functional, cell-based, Homo sapiens; conditions: Homo sapiens, NCI-H1770;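 also: growth inhibition of NCI-H1770 cells determined with a viability readout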
Description: SANGER: Inhibition of human NCI-H1770 cell growth in a cell viability assay.

A3-KAW = type: functional, cell-based, Homo sapiens; conditions: Homo sapiens, A3-KAW;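 also: growth inhibition of human A3-KAW cells, read out with a cell viability assay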
Description: SANGER: Inhibition of human A3-KAW cell growth in a cell viability assay.

NCI-H2126 = type: functional, cell-based, Homo sapiens; conditions: Homo sapiens, NCI-H2126;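 also: growth inhibition of the cancer cell line, determined with a cell viability readout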
Description: SANGER: Inhibition of human NCI-H2126 cell growth in a cell viability assay.

ES5 = type: functional, cell-based, Homo sapiens; conditions: Homo sapiens, ES5;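 also: growth inhibition of human ES5 cells, read out by a cell viability assay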
Description: SANGER: Inhibition of human ES5 cell growth in a cell viability assay.

P30-OHK = type: functional, cell-based, Homo sapiens; conditions: Homo sapiens, P30-OHK;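 also: growth inhibition of the P30-OHK cell line, read out with a cell viability assay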
Description: SANGER: Inhibition of human P30-OHK cell growth in a cell viability assay.

SK-PN-DW = type: functional, cell-based, Homo sapiens; conditions: Homo sapiens, SK-PN-DW;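 also: growth inhibition measured with a viability assay on these cells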
Description: SANGER: Inhibition of human SK-PN-DW cell growth in a cell viability assay.

NCI-H23 = type: functional, cell-based, Homo sapiens; conditions: Homo sapiens, NCI-H23;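 also: cell viability assay measuring growth inhibition of NCI-H23 cells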
Description: SANGER: Inhibition of human NCI-H23 cell growth in a cell viability assay.

QIMR-WIL = type: functional, cell-based, Homo sapiens; conditions: Homo sapiens, QIMR-WIL;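 also: growth inhibition of QIMR-WIL cells, read out with a cell viability assay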
Description: SANGER: Inhibition of human QIMR-WIL cell growth in a cell viability assay.

HCC1187 = type: functional, cell-based, Homo sapiens; conditions: Homo sapiens, HCC1187;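 also: growth inhibition of HCC1187 cells, read out with a cell viability assay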
Description: SANGER: Inhibition of human HCC1187 cell growth in a cell viability assay.

BB30-HNC = type: functional, cell-based, Homo sapiens; conditions: Homo sapiens, BB30-HNC;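 also: growth inhibition of the cultured cell line, read out by a cell viability assay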
Description: SANGER: Inhibition of human BB30-HNC cell growth in a cell viability assay.

MC116 = type: functional, cell-based, Homo sapiens; conditions: Homo sapiens, MC116;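 also: growth inhibition of MC116 cells, read out with a cell viability assay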
Description: SANGER: Inhibition of human MC116 cell growth in a cell viability assay.

EM-2 = type: functional, cell-based, Homo sapiens; conditions: Homo sapiens, EM-2;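 also: growth inhibition of EM-2 cells, read out with a cell viability assay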
Description: SANGER: Inhibition of human EM-2 cell growth in a cell viability assay.

Calu-6 = type: functional, cell-based, Homo sapiens; conditions: Homo sapiens, Calu-6;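 also: growth of human Calu-6 cells, read out by a cell viability assay, IC50 marking inhibition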
Description: SANGER: Inhibition of human Calu-6 cell growth in a cell viability assay.

LS-123 = type: functional, cell-based, Homo sapiens; conditions: Homo sapiens, LS-123
Description: SANGER: Inhibition of human LS-123 cell growth in a cell viability assay.

TE-10 = type: functional, cell-based, Homo sapiens; conditions: Homo sapiens, TE-10;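 also: growth inhibition of TE-10 cells, measured by a cell viability assay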
Description: SANGER: Inhibition of human TE-10 cell growth in a cell viability assay.

HT-144 = type: functional, cell-based, Homo sapiens; conditions: Homo sapiens, HT-144
Description: SANGER: Inhibition of human HT-144 cell growth in a cell viability assay.

TE-5 = type: functional, cell-based, Homo sapiens; conditions: Homo sapiens, TE-5;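 also: inhibition of cell growth, read out by a cell viability assay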
Description: SANGER: Inhibition of human TE-5 cell growth in a cell viability assay.

D-247MG = type: functional, cell-based; conditions: Homo sapiens
Description: SANGER: Inhibition of human D-247MG cell growth in a cell viability assay.

LB831-BLC = type: functional, cell-based, Homo sapiens; conditions: Homo sapiens, LB831-BLC;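 also: growth inhibition of LB831-BLC cells, read out with a cell viability assay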
Description: SANGER: Inhibition of human LB831-BLC cell growth in a cell viability assay.

DOHH-2 = type: functional, cell-based, Homo sapiens; conditions: Homo sapiens, DOHH-2;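 also: growth inhibition of human DOHH-2 cells, read out with a cell viability assay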
Description: SANGER: Inhibition of human DOHH-2 cell growth in a cell viability assay.

SNU-5 = type: functional, cell-based, Homo sapiens; conditions: Homo sapiens, SNU-5;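 also: cell viability readout used to measure growth inhibition in human NCI-SNU-5 cells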
Description: SANGER: Inhibition of human NCI-SNU-5 cell growth in a cell viability assay.

SNB-75 = type: functional, cell-based, Homo sapiens; conditions: Homo sapiens, SNB-75;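 also: cell viability assay measuring growth inhibition of human SNB-75 cells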
Description: SANGER: Inhibition of human SNB75 cell growth in a cell viability assay.

COLO-824 = type: functional, cell-based, Homo sapiens; conditions: Homo sapiens, COLO-824
Description: SANGER: Inhibition of human COLO-824 cell growth in a cell viability assay.

Lu-65 = type: functional, cell-based, Homo sapiens; conditions: Homo sapiens, Lu-65;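 also: growth inhibition of Lu-65 cancer cells, read out by a cell viability assay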
Description: SANGER: Inhibition of human LU-65 cell growth in a cell viability assay.

NB10 = type: functional, cell-based, Homo sapiens; conditions: Homo sapiens, NB10;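 also: growth inhibition of NB10 cells, read out by a cell viability assay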
Description: SANGER: Inhibition of human NB10 cell growth in a cell viability assay.

TE-12 = type: functional, cell-based, Homo sapiens; conditions: Homo sapiens, TE-12;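 also: growth inhibition of TE-12 cells, read out by a cell viability assay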
Description: SANGER: Inhibition of human TE-12 cell growth in a cell viability assay.

SF-539 = type: functional, cell-based, Homo sapiens; conditions: Homo sapiens, SF-539;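 also: Read-out is a cell viability assay, with IC50 reflecting inhibition of cell growth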
Description: SANGER: Inhibition of human SF539 cell growth in a cell viability assay.

JVM-2 = type: functional, cell-based, Homo sapiens; conditions: Homo sapiens, JVM-2;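 also: growth inhibition of JVM-2 cells determined by a cell viability assay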
Description: SANGER: Inhibition of human JVM-2 cell growth in a cell viability assay.

NCI-H747 = type: functional, cell-based, Homo sapiens; conditions: Homo sapiens, NCI-H747;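 also: growth inhibition of human NCI-H747 cells, read out by a cell viability assay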
Description: SANGER: Inhibition of human NCI-H747 cell growth in a cell viability assay.

NCI-H82 = type: functional, cell-based, Homo sapiens; conditions: Homo sapiens, NCI-H82;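 also: growth inhibition of NCI-H82 cells, measured with a cell viability readout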
Description: SANGER: Inhibition of human NCI-H82 cell growth in a cell viability assay.

NTERA-2-cl-D1 = type: functional, cell-based, Homo sapiens; conditions: Homo sapiens, NTERA-2-cl-D1;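 also: inhibition of cell growth, measured with a cell viability assay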
Description: SANGER: Inhibition of human NTERA-S-cl-D1 cell growth in a cell viability assay.

HDLM-2 = type: functional, cell-based, Homo sapiens; conditions: Homo sapiens, HDLM-2;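 also: cell viability assay measuring suppression of HDLM-2 proliferation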
Description: SANGER: Inhibition of human HDLM-2 cell growth in a cell viability assay.

ACN = type: functional, cell-based, Homo sapiens; conditions: Homo sapiens, ACN;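 also: growth inhibition of the human ACN cell line, read out via cell viability testing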
Description: SANGER: Inhibition of human ACN cell growth in a cell viability assay.

TE-11 = type: functional, cell-based; conditions: Homo sapiens;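 also: growth inhibition of human TE-11 cells, read out by a cell viability assay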
Description: SANGER: Inhibition of human TE-11 cell growth in a cell viability assay.

RXF 393 = type: functional, cell-based, Homo sapiens; conditions: Homo sapiens, RXF 393;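 also: growth inhibition of human RXF 393 cells, read out with a cell viability assay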
Description: SANGER: Inhibition of human RXF393 cell growth in a cell viability assay.

COc1ccc(N(C(=O)Oc2c(C)cccc2C)c2ccnc(Nc3ccc(N4CCN(C)CC4)cc3)n2)c(OC)c1
IC50 (MZ1-PC): 227 nM
IC50 (DU-4475): > 5120 nM
IC50 (SK-LMS-1): > 5120 nM
IC50 (EKVX): > 5120 nM
IC50 (TE-8): 239 nM
IC50 (GCIY): 1230 nM
IC50 (ES6): 2050 nM
IC50 (LS-513): > 5120 nM
IC50 (CW-2): > 5120 nM
IC50 (KARPAS-299): > 5120 nM
IC50 (SCH): > 5120 nM
IC50 (COLO-800): > 5120 nM
IC50 (MOLT-4): > 5120 nM
IC50 (ES4): > 5120 nM
IC50 (HCC2157): > 5120 nM
IC50 (NCI-H1770): > 5120 nM
IC50 (A3-KAW): > 5120 nM
IC50 (NCI-H2126): > 5120 nM
IC50 (ES5): > 5120 nM
IC50 (P30-OHK): > 5120 nM
IC50 (SK-PN-DW): > 5120 nM
IC50 (NCI-H23): > 5120 nM
IC50 (QIMR-WIL): > 5120 nM
IC50 (HCC1187): > 5120 nM
IC50 (BB30-HNC): 1850 nM
IC50 (MC116): 2860 nM
IC50 (EM-2): < 20 nM
IC50 (Calu-6): > 5120 nM
IC50 (LS-123): 4360 nM
IC50 (TE-10): 4280 nM
IC50 (HT-144): 1450 nM
IC50 (TE-5): > 5120 nM
IC50 (D-247MG): > 5120 nM
IC50 (LB831-BLC): 127 nM
IC50 (DOHH-2): < 20 nM
IC50 (SNU-5): > 5120 nM
IC50 (SNB-75): 358 nM
IC50 (COLO-824): > 5120 nM
IC50 (Lu-65): > 5120 nM
IC50 (NB10): > 5120 nM
IC50 (TE-12): 888 nM
IC50 (SF-539): > 5120 nM
IC50 (JVM-2): > 5120 nM
IC50 (NCI-H747): > 5120 nM
IC50 (NCI-H82): > 5120 nM
IC50 (NTERA-2-cl-D1): 289 nM
IC50 (HDLM-2): > 5120 nM
IC50 (ACN): 4230 nM
IC50 (TE-11): > 5120 nM
IC50 (RXF 393): 106 nM

NC(=O)c1cccc(-c2cc(Nc3ccc(OC(F)(F)F)cc3)ncn2)c1
IC50 (MZ1-PC): > 1280 nM
IC50 (DU-4475): > 1280 nM
IC50 (SK-LMS-1): > 1280 nM
IC50 (EKVX): > 1280 nM
IC50 (TE-8): > 1280 nM
IC50 (GCIY): > 1280 nM
IC50 (ES6): > 1280 nM
IC50 (LS-513): > 1280 nM
IC50 (CW-2): > 1280 nM
IC50 (KARPAS-299): > 1280 nM
IC50 (SCH): > 1280 nM
IC50 (COLO-800): > 1280 nM
IC50 (MOLT-4): > 1280 nM
IC50 (ES4): > 1280 nM
IC50 (HCC2157): > 1280 nM
IC50 (NCI-H1770): > 1280 nM
IC50 (A3-KAW): > 1280 nM
IC50 (NCI-H2126): > 1280 nM
IC50 (ES5): > 1280 nM
IC50 (P30-OHK): > 1280 nM
IC50 (SK-PN-DW): > 1280 nM
IC50 (NCI-H23): > 1280 nM
IC50 (QIMR-WIL): > 1280 nM
IC50 (HCC1187): > 1280 nM
IC50 (BB30-HNC): > 1280 nM
IC50 (MC116): > 1280 nM
IC50 (EM-2): 235 nM
IC50 (Calu-6): > 1280 nM
IC50 (LS-123): > 1280 nM
IC50 (TE-10): > 1280 nM
IC50 (HT-144): > 1280 nM
IC50 (TE-5): > 1280 nM
IC50 (D-247MG): > 1280 nM
IC50 (LB831-BLC): > 1280 nM
IC50 (DOHH-2): > 1280 nM
IC50 (SNU-5): > 1280 nM
IC50 (SNB-75): > 1280 nM
IC50 (COLO-824): > 1280 nM
IC50 (Lu-65): > 1280 nM
IC50 (NB10): > 1280 nM
IC50 (TE-12): > 1280 nM
IC50 (SF-539): > 1280 nM
IC50 (JVM-2): > 1280 nM
IC50 (NCI-H747): > 1280 nM
IC50 (NCI-H82): > 1280 nM
IC50 (NTERA-2-cl-D1): > 1280 nM
IC50 (HDLM-2): > 1280 nM
IC50 (ACN): > 1280 nM
IC50 (TE-11): > 1280 nM
IC50 (RXF 393): > 1280 nM
